Test results from PubChem BioAssay (NCI).
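Protocol summary: plate cells (96-well), add compound at 5 concentrations, incubate 48 h, interpolate endpoints linearly. GI50: concentration for 50% inhibition of growth. Definition used: TGI = concentration required for complete inhibition of growth.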

What was measured:
Assay in all cases: growth of human tumour cells (NCI), 48 h
786-0 renal = test system: 786-0 renal
A498 renal = test system: A498 renal
A549 NSCLC = test system: A549 NSCLC
ACHN renal = test system: ACHN renal
BT-549 breast = test system: BT-549 breast
CAKI-1 renal = test system: CAKI-1 renal
CCRF-CEM leukemia = test system: CCRF-CEM leukemia
COLO 205 colon = test system: COLO 205 colon
DU-145 prostate = test system: DU-145 prostate
HCC-2998 colon = test system: HCC-2998 colon
HCT-116 colon = test system: HCT-116 colon
HCT-15 colon = test system: HCT-15 colon
HL-60(TB) leukemia = test system: HL-60(TB) leukemia
HOP-62 NSCLC = test system: HOP-62 NSCLC
HOP-92 NSCLC = test system: HOP-92 NSCLC
HS 578T breast = test system: HS 578T breast
HT29 colon = test system: HT29 colon
IGROV1 ovarian = test system: IGROV1 ovarian
K-562 leukemia = test system: K-562 leukemia
KM12 colon = test system: KM12 colon
LOX IMVI melanoma = test system: LOX IMVI melanoma
M14 melanoma = test system: M14 melanoma
MALME-3M melanoma = test system: MALME-3M melanoma
MCF7 breast = test system: MCF7 breast
MDA-MB-231 breast = test system: MDA-MB-231 breast
MDA-MB-435 = test system: MDA-MB-435
MOLT-4 leukemia = test system: MOLT-4 leukemia
NCI-H226 lung = test system: NCI-H226 lung
NCI-H23 lung = test system: NCI-H23 lung
NCI-H460 lung = test system: NCI-H460 lung
NCI-H522 lung = test system: NCI-H522 lung
NCI/ADR-RES ovarian = test system: NCI/ADR-RES ovarian
OVCAR-3 ovarian = test system: OVCAR-3 ovarian
OVCAR-4 ovarian = test system: OVCAR-4 ovarian
OVCAR-5 ovarian = test system: OVCAR-5 ovarian
OVCAR-8 ovarian = test system: OVCAR-8 ovarian
PC-3 prostate = test system: PC-3 prostate
RPMI-8226 leukemia = test system: RPMI-8226 leukemia
RXF 393 renal = test system: RXF 393 renal
SF-268 CNS = test system: SF-268 CNS
SF-295 CNS = test system: SF-295 CNS
SF-539 CNS = test system: SF-539 CNS
SK-MEL-2 melanoma = test system: SK-MEL-2 melanoma
SK-MEL-28 melanoma = test system: SK-MEL-28 melanoma
SK-MEL-5 melanoma = test system: SK-MEL-5 melanoma
SK-OV-3 ovarian = test system: SK-OV-3 ovarian
SN12C renal = test system: SN12C renal
SNB-19 CNS = test system: SNB-19 CNS
SNB-75 CNS = test system: SNB-75 CNS
SR leukemia = test system: SR leukemia
SW-620 colon = test system: SW-620 colon
T-47D breast = test system: T-47D breast
TK-10 renal = test system: TK-10 renal
U251 CNS = test system: U251 CNS
UACC-257 melanoma = test system: UACC-257 melanoma
UACC-62 melanoma = test system: UACC-62 melanoma
UO-31 renal = test system: UO-31 renal

`N#C/C(=C1C=C/C(=N/O)C(Br)=C/1)c1ccccc1` showed a GI50 (786-0 renal) of 3.19 µM, a TGI (786-0 renal) of 14.7 µM and a GI50 (A498 renal) of 2.57 µM. The TGI (A498 renal) was 16.7 µM, the GI50 (A549 NSCLC) was 3.48 µM and the TGI (A549 NSCLC) was greater than 100 µM. The GI50 (ACHN renal) was 1.89 µM, the TGI (ACHN renal) was 14.7 µM and the GI50 (BT-549 breast) was 9.59 µM. For the same compound, the TGI (BT-549 breast) was 27.3 µM, the GI50 (CAKI-1 renal) was 0.7 µM and the TGI (CAKI-1 renal) was 12.7 µM. For the same compound, the GI50 (CCRF-CEM leukemia) was 0.661 µM, the TGI (CCRF-CEM leukemia) was 8.91 µM and the GI50 (COLO 205 colon) was 6.89 µM. The TGI (COLO 205 colon) was 54.7 µM, the GI50 (DU-145 prostate) was 3.24 µM and the TGI (DU-145 prostate) was 9.69 µM. For the same compound, the GI50 (HCC-2998 colon) was 5.02 µM, the TGI (HCC-2998 colon) was 20.7 µM and the GI50 (HCT-116 colon) was 0.362 µM. For the same compound, the TGI (HCT-116 colon) was 2.13 µM, the GI50 (HCT-15 colon) was 2.41 µM and the TGI (HCT-15 colon) was greater than 100 µM. For the same compound, the GI50 (HL-60(TB) leukemia) was 2.16 µM, the TGI (HL-60(TB) leukemia) was 6.31 µM and the GI50 (HOP-62 NSCLC) was 2.25 µM. For the same compound, the TGI (HOP-62 NSCLC) was 13 µM, the GI50 (HOP-92 NSCLC) was 0.385 µM and the TGI (HOP-92 NSCLC) was 3.77 µM. It also gave a GI50 (HS 578T breast) of 2.52 µM, a TGI (HS 578T breast) of 8.09 µM and a GI50 (HT29 colon) of 3.3 µM. For the same compound, the TGI (HT29 colon) was 10.2 µM, the GI50 (IGROV1 ovarian) was 2.16 µM and the TGI (IGROV1 ovarian) was 12.2 µM. For the same compound, the GI50 (K-562 leukemia) was 0.878 µM, the TGI (K-562 leukemia) was 12.6 µM and the GI50 (KM12 colon) was 0.347 µM. For the same compound, the TGI (KM12 colon) was 1.42 µM, the GI50 (LOX IMVI melanoma) was 0.521 µM and the TGI (LOX IMVI melanoma) was 2.9 µM. It also gave a GI50 (M14 melanoma) of 3.79 µM, a TGI (M14 melanoma) of 20 µM and a GI50 (MALME-3M melanoma) of 4.72 µM. It also gave a TGI (MALME-3M melanoma) of 22.6 µM, a GI50 (MCF7 breast) of 0.323 µM and a TGI (MCF7 breast) of 11.3 µM. The GI50 (MDA-MB-231 breast) was 2.27 µM, the TGI (MDA-MB-231 breast) was 6.73 µM and the GI50 (MDA-MB-435) was 0.495 µM. It also gave a TGI (MDA-MB-435) of 2.32 µM, a GI50 (MOLT-4 leukemia) of 2.93 µM and a TGI (MOLT-4 leukemia) of 11.5 µM. It also gave a GI50 (NCI-H226 lung) of 3.59 µM, a TGI (NCI-H226 lung) of 11.6 µM and a GI50 (NCI-H23 lung) of 5.26 µM. It also gave a TGI (NCI-H23 lung) of 96.8 µM, a GI50 (NCI-H460 lung) of 2.89 µM and a TGI (NCI-H460 lung) of 8.8 µM. The GI50 (NCI-H522 lung) was 1.87 µM, the TGI (NCI-H522 lung) was 5.23 µM and the GI50 (NCI/ADR-RES ovarian) was 2.61 µM. It also gave a TGI (NCI/ADR-RES ovarian) of 84.1 µM, a GI50 (OVCAR-3 ovarian) of 3.48 µM and a TGI (OVCAR-3 ovarian) of 11.4 µM. It also gave a GI50 (OVCAR-4 ovarian) of 5.41 µM, a TGI (OVCAR-4 ovarian) of 37.9 µM and a GI50 (OVCAR-5 ovarian) of 2.6 µM. For the same compound, the TGI (OVCAR-5 ovarian) was 6.8 µM, the GI50 (OVCAR-8 ovarian) was 2.61 µM and the TGI (OVCAR-8 ovarian) was 8.41 µM. The GI50 (PC-3 prostate) was 0.568 µM, the TGI (PC-3 prostate) was 6.33 µM and the GI50 (RPMI-8226 leukemia) was 0.36 µM. It also gave a TGI (RPMI-8226 leukemia) of 11.5 µM, a GI50 (RXF 393 renal) of 3.01 µM and a TGI (RXF 393 renal) of 11.5 µM. The GI50 (SF-268 CNS) was 2.18 µM, the TGI (SF-268 CNS) was 11.7 µM and the GI50 (SF-295 CNS) was 2.81 µM. It also gave a TGI (SF-295 CNS) of 8.47 µM, a GI50 (SF-539 CNS) of 1.09 µM and a TGI (SF-539 CNS) of 2.75 µM. For the same compound, the GI50 (SK-MEL-2 melanoma) was 3.64 µM, the TGI (SK-MEL-2 melanoma) was 13.9 µM and the GI50 (SK-MEL-28 melanoma) was 10.3 µM. For the same compound, the TGI (SK-MEL-28 melanoma) was 31.1 µM, the GI50 (SK-MEL-5 melanoma) was 2.75 µM and the TGI (SK-MEL-5 melanoma) was 10.4 µM. It also gave a GI50 (SK-OV-3 ovarian) of 4.43 µM, a TGI (SK-OV-3 ovarian) of 71.6 µM and a GI50 (SN12C renal) of 3.68 µM. The TGI (SN12C renal) was 16.8 µM, the GI50 (SNB-19 CNS) was 8.7 µM and the TGI (SNB-19 CNS) was greater than 100 µM. The GI50 (SNB-75 CNS) was 3.42 µM, the TGI (SNB-75 CNS) was 22.6 µM and the GI50 (SR leukemia) was 0.545 µM. For the same compound, the TGI (SR leukemia) was 8.48 µM, the GI50 (SW-620 colon) was 0.637 µM and the TGI (SW-620 colon) was 10.8 µM. It also gave a GI50 (T-47D breast) of 2.19 µM, a TGI (T-47D breast) of 20.6 µM and a GI50 (TK-10 renal) of 5.02 µM. The TGI (TK-10 renal) was 16.5 µM, the GI50 (U251 CNS) was 2.44 µM and the TGI (U251 CNS) was 8.01 µM. For the same compound, the GI50 (UACC-257 melanoma) was 6.61 µM, the TGI (UACC-257 melanoma) was 55.9 µM and the GI50 (UACC-62 melanoma) was 2.97 µM. The TGI (UACC-62 melanoma) was 16 µM, the GI50 (UO-31 renal) was 2.04 µM and the TGI (UO-31 renal) was 15.4 µM.
